Laboratory results reported in US20210268070A1, “Use of Immunomodulators to Control Infection and Stimulate Healing in Normal and Diabetic Wounds” (priority 2018, published 2021).

B1: Chemokine (C-C motif) ligand 3 (protein, listed as Homo sapiens)
chain: MQVSTAALAVLLCTMALCNQFSASLAADTPTACCFSYTSRQIPQNFIADYFETSSQCSKPGVIFLTKRSRQVCADPSEEWVQKYVSDLELSA
notes: class 1 immunomodulator

Key:
P. aeruginosa PA103 [1] = assay: Wound model of infection with PA103 in diabetic db/db mice; type: in vivo; settings: for infection control against P. aeruginosa in diabetic wounds infected with PA103: 10^6 PA103, topical at time of surgery & infection, 24 h, FIG. 2D
Experimental: (§1) The implant model of infection in C57B mice was used for 10^6 PA103 (FIG. 2A) or 10^6 USA300 MRSA (FIG. 2C). The wound model of infection was used for 10^6 PA103 in C57BL mice (FIG. 2B) or diabetic db/db mice (FIG. 2D). Infection was carried out at the time of surgery by adding bacteria directly to the surgical sites. Immunomodulators, namely, LPS (10 ng or 100 ng), fMLP (10 ng or 100 ng), CCL3 (1 μg) were added topically at the surgical sites at the time of surgery & infection. GM-CSF (10 μg/kg), tobramycin (Tob at 3.5 mg/kg), and vancomycin (40 mg/kg) were added systemically by i.p. injection 1 h before surgical implantation and infection. Infection levels were determined 24 h following infection (N>4 animals/group; NS=not significant, * p<0.01, ** p<0.001, ***p<0.0001 One-way ANOVA).
(§2) We assessed these immunomodulators for their ability to control wound and/or implant SS's in normal (C57BL/6) or diabetic (db/db) mice. We acknowledge that diabetic individuals are not as immunocompromised as other immunocompromised patient groups. […] All immunomodulators were added locally at the surgical sites at the time of infection, except GM-CSF (10 μg/kg) which was administered systemically by i.p. injection 1 h prior to surgery per its FDA-approved route of delivery. […] CCL3 and GM-CSF are also tested using the implant model of infection. Here, we tested CCL3 and GM-CSF in the wound model of infection in C57B mice.
Implant surgery and wound surgery and surgical site infection are performed according to the following method. On the day of surgery, all mice are anesthetized by an intraperitoneal injection of a ketamine/xylazine mixture (90 mg/kg ketamine+5 mg/kg xylazine for mice). The back of the animals is shaved using an electric shave and scrubbed with alcohol swabs 3 times, a topical antiseptic solution (Hibiclens; chlorhexidine gluconate) is applied to the skin. The surgical procedures are performed with sterile instruments, sterile surgical gloves, and aseptic techniques as follows. For wound surgical procedure, a sterile biopsy punch (5-7 mm diameter) is used to punch through the full thickness of the back skin below the shoulder blades. Four 5-7 mm skin wounds are made on the back of each mouse. Wounds placed in this area cannot be reached by the animals and therefore are protected from self-licking. For implant surgery, a 4-mm long lateral skin incision is made on the upper back, and the skin is retracted. The space above the muscle is opened using blunt dissection with fine forceps, to create a rostral fascia indentation. Then, immunomodulators at indicated concentrations (in a 20 μL volume) or PBS control are injected into the fascia indentation. After a 1 min wait for fluid to be absorbed, a disc implant, (1.87 mm diameter, 0.68 mm thick (Part # VP 724F-1)), is inserted in the fascia indentation. […] For implant surgery, the fascia indentation is left open, while the skin is closed with 4-0 nylon sutures. The fascia above the back muscles in mice is too thin and fragile to allow it to be sutured closed around the implant.

P. aeruginosa PA103 [2] = assay: Implant model of infection with PA103; type: in vivo; settings: C57B mice, 10^6 PA103, topical at surgical site at time of surgery & infection, 10 ng or 100 ng, dose-dependent, 24 h following infection, FIG. 2A
Experimental: as §1, §2
(§3) Implant surgery and wound surgery and surgical site infection are performed according to the following method. On the day of surgery, all mice are anesthetized by an intraperitoneal injection of a ketamine/xylazine mixture (90 mg/kg ketamine+5 mg/kg xylazine for mice). The back of the animals is shaved using an electric shave and scrubbed with alcohol swabs 3 times, a topical antiseptic solution (Hibiclens; chlorhexidine gluconate) is applied to the skin. The surgical procedures are performed with sterile instruments, sterile surgical gloves, and aseptic techniques as follows. […]

USA300 MRSA = assay: Implant model of infection with USA300 MRSA; type: in vivo; settings: C57B mice, 10^6 CFU USA300, implant model, topical LPS or fMLP vs vancomycin 40 mg/kg i.p., 24 h, FIG. 2C
Experimental: as §1
(15A) C57BL/6 mice received 40 mg/kg prophylaxis (Sys) vancomycin (Vanc) or 3.5 mg/kg tobramycin (Tobra) by i.p. injection. (15A) 1 h after antibiotic administration, 106 CFU of USA300 was added to implant after insertion into facia (Implant Model). (15B) 1 h after antibiotic administration, 10^6CFU of USA300 or 106CFU PA103 (Pa) were added full-thickness wounds in of C57BL/6 (Wound Model). Infection levels at implant surgical site (Tissue & Implant) or a distant site (Spleen), or wound tissues were assessed 24 h following infection. (N>4 animals/group, * p<0.01, ***p<0.0001, One-way ANOVA).
as §2
as §3, with “follows. For wound surgical procedure, a sterile biopsy punch (5-7 mm diameter) is used to punch through the full thickness of the back skin below the shoulder blades.” for “follows.”

[3] = system: inflammatory responses (IL-1 β, TNFα); assay: Neutrophilia and inflammatory responses in diabetic wounds; type: in vivo, db/db mice
Description: P. aeruginosa PA103 10^3 N=4; Significance determined as compared to PBS *<0.05, **p<0.01, ***p<0.001.
FIG. 13A illustrates that TLR4 ligand increases antimicrobial defenses in diabetic wounds against P. aeruginosa and FIG. 13B TLR4 ligand stimulates inflammatory responses in diabetic wounds. N=4; Significance determined as compared to PBS *<0.05, **p<0.01, ***p<0.001.
Tissue-Tek O.C.T. (Sakura); Lysing Matrix D (MP Biomedicals); Collagenase (Roche Diagnostics), Hematoxylin and eosin (H&E); DNase 1 (Sigma-Aldrich); Hyluronidase, Streptozotocin (Sigma-Aldrich); Trizol (Invitrogen); CD45 antibody (eBioscience, Inc); Ly6C; Ly6G; CD11b; CD3 (BioLegend); CD68; GAPDH (Sigma-Aldrich). Ly6G and CD68 (Abcam); Primer pairs for GAPDH were from Qiagen. Masson's trichrome stain (Sigma-Aldrich); Picrosirius red (Abcam); Fibronectin (Chemicon International); Insulin slow-release capsules (Linplant; LinShin, Toronto, Canada) CCL3 (R&D Systems) fMLP (Sigma-Aldrich); II-1β ELISA (R&D Systems); TNF-α ELISA (R&D Systems).

Molecule | infection control against P. aeruginosa in diabetic wounds infected with PA103 (P. aeruginosa PA103 [1]; db/db mice) | P. aeruginosa infection levels on both the implants and tissues surrounding implants (P. aeruginosa PA103 [2]) | controlling USA300 MRSA infection, compared with prophylaxis vancomycin (USA300 MRSA) | antimicrobial defenses in diabetic wounds against P. aeruginosa (P. aeruginosa PA103 [1]; compared to PBS, FIG. 13A) | inflammatory responses in diabetic wounds ([3]; compared to PBS, FIG. 13B) | infection control in diabetic wounds (P. aeruginosa PA103 [1]; P. aeruginosa PA103 10^3, compared to PBS, FIG. 11A) | infection control in diabetic animals, compared with LPS or fMLP (P. aeruginosa PA103 [1]; db/db mice, PA103, FIG. 2D) | neutrophilia in infected diabetic wounds ([3]; P. aeruginosa PA103 10^3, FIG. 12A) | persistent inflammatory responses (IL-1 β, TNFα) in infected diabetic wounds ([3]; P. aeruginosa PA103 10^3, FIG. 12B, 12C)
CSCC[C@H](NC=O)C(=O)N[C@@H](CC(C)C)C(=O)N[C@@H](Cc1ccccc1)C(=O)O [fMLP, N-Formylmethionyl-leucyl-phenylalanine] | significantly improved | significantly reduced | as effective (if not more) |  |  |  |  |  | 
lipopolysaccharide [LPS] | significantly improved | significantly reduced | as effective (if not more) | increases | stimulates |  |  |  | 
B1 | significantly improved |  |  |  |  | increases | significantly more effective | does not lead to | does not lead to
